Data published in BigSolDB 2.1.

CO[C@@]1(NC(=O)CSCC#N)C(=O)N2C(C(=O)O)=C(CSc3nnnn3C)CS[C@@H]21
solubility (mole fraction)
Conditions | 278.15 K | 283.15 K | 288.15 K | 293.15 K | 298.15 K | 303.15 K
in ethanol | 0.000266 | 0.000276 | 0.000343 | 0.000435 | 0.00049 | 0.000659
in methanol | 0.00163 | 0.00187 | 0.00222 | 0.00273 | 0.00364 | 0.00445
